Values of other authors, collected in patent US20220259243A1, “IRON(III) AND GALLIUM(III) METAL ORGANIC POLYHEDRA, METHODS OF MAKING SAME, AND USES THEREOF” (The Research Foundation for The State University of New York, priority 2019, published 2022).

Details: 37° C., 4.7 Tesla, neutral pH

r1 relaxivity: 3 mM⁻¹ s⁻¹
Compound: CNC[C@H](O)[C@@H](O)[C@H](O)[C@H](O)CO.CNC[C@H](O)[C@@H](O)[C@H](O)[C@H](O)CO.O=C([O-])CN(CCN(CC(=O)[O-])CC(=O)O)CCN(CC(=O)[O-])CC(=O)O.[Gd+3] [Magnevist]
